Laboratory results: patent publication US4503060A, “3-Imino-3H-dibenzo-[c,f]-imidazo-[1,5-a]azepine pharmaceuticals” (Boehringer Ingelheim KG, priority 1981, dated 1985)

Key:
histamine wheal = histamine wheal (antihistaminic activity) in rats, Evans Blue extravasation; format: in vivo
Source text: (b) Antihistaminic activity:
The results were quantified by measuring the wheal after extravasation of Evans Blue dye into the skin.

in vivo = details: mouse, po
[1] = system: passive cutaneous anaphylaxis (PCA); experiment: passive cutaneous anaphylaxis (PCA) in rats after passive sensitization with IgE antibodies and antigen provocation; format: in vivo; details: po; Rat
Protocol: (a) Tests on allergized rats were carried out after passive sensitization of the animals with IgE antibodies and subsequent antigen provocation. In this way, passive cutaneous anaphylaxis (PCA) was produced (Goose et al [1969]: Immunology 16, 749).

Br.Cn1cc2n(c1=N)-c1ccccc1Cc1ccccc1-2 [Example 2, 2-Methyl-3-imino-2,3-dihydro-9H-dibenz-[c,f]-imidazo-[1,5-a]-azepine hydrobromide]
Histamine Wheal (rat) i.v. (histamine wheal; i.v.): 0.07 | Histamine Wheal (rat) p.o. (histamine wheal; p.o.): 2.7 | LD50 (in vivo): 280 mg/kg | ED50 [1]: 1.1 mg/kg
